{
  "source": "patent US11898155B2",
  "about": "“Method for introducing molecule and composition containing inhibitor” (Pearl Kogyo Co., Ltd., priority 2017, dated 2024)",
  "key": {"L-929 cells [1]": {"system": "L-929 cells", "assay": "Gene transfer efficiency (GFP-expressing cells/viable cell number, Cytell) after plasma introduction with inhibitor treatment", "type": "cell-based, mouse", "conditions": "for gene introduction rate: concentration of inhibitor changed, normalized to control without inhibitor = 1 (FIGS. 8 to 11)", "protocol": "(§1) Mouse fibroblast L-929 cells were seeded on a 96-well plate and were cultured for 24 h in CO2 incubator. A culture medium was removed by aspiration, and 100 μL of nocodazole (inhibitor) free-culture medium, 1 μM nocodazole-containing culture medium, or 100 μM nocodazole-containing culture medium was added to each well. The cells were cultured for 30 min in CO2 incubator. Next, the culture medium was removed by aspiration, and 6.0 μg/6.0 μL of pAcGFP1-N1 plasmid (selected molecule) solution was added dropwise to each well. The 96-well plate was set in plasma irradiation equipment and irradiated with plasma. Then, 100 μL of culture medium was immediately added, and the plate was returned to CO2 incubator and the cells were cultured for 24 h. The cells after the culturing were observed under a microscope.\nA selected molecule was introduced in the same manner as in Example 1, except the point that in the inhibitor treatment step using 1 μM nocodazole, the treatment time was changed from 1 min to 120 min. […] The dashed line denotes the level in the case without adding nocodazole (control, left panel). The gene transfer efficiency (%) was calculated, using a Cytell (Cytell Cell Imaging System, manufactured by GE Healthcare, Inc.), as (the number of GFP-expressing cells/viable cell number).\nA selected molecule was introduced in the same manner as in Example 1, except the point that the cells were treated with 5 μM or 15 μM chloroquine diphosphate and the plasma irradiation time was changed.\nA selected molecule was introduced in the same manner as in Example 1, except the point that the concentration of nocodazole was changed, to determine cell viability and gene transfer efficiency. The plasma irradiation conditions were at a frequency of 20 kHz, a voltage of 15 kVpp, and an inter-electrode distance of 1 mm and for an irradiation time of 1 msec.\nCell viability and gene transfer efficiency were determined in the same manner as in Example 4, except the point that chloroquine was used as the inhibitor.\nCell viability and gene transfer efficiency were determined in the same manner as in Example 4, except the point that LY-294002 was used as the inhibitor.\nCell viability and gene transfer efficiency were determined in the same manner as in Example 4, except the point that wortmannin was used as the inhibitor."}, "L-929 cells [2]": {"system": "L-929 cells", "assay": "PCR quantification of remaining plasmid gene at 24 h after introduction", "type": "cell-based, mouse", "conditions": "1 μM nocodazole, from Cq values (FIG. 15)", "protocol": "A selected molecule was introduced into mouse fibroblast L-929 cells in the same procedure as in Example 1. The resulting cells were cultured for 24 h. […] The cultured cells were collected from eight wells, and a High Pure PCR Template Preparation Kit (manufactured by Roche, Inc.) was used to recover and purify DNA. Next, 50 ng of the purified DNA was added to a PCR reaction kit SYBR Green I (Fast Start Essential DNA Green Master, manufactured by Roche, Inc.). Each resulting mixture was subjected to 40 cycles of amplification using a PCR machine (LightCycler 96 system, manufactured by Roche, Inc.). […] Each Cq value refers to a value determined by calculating a cycle number after amplification of gene sequence of interest has started and before a quantitative increase (linear increase) is initiated. The cycle number indicated by each arrow in FIG. 15(B) refers to the Cq value. When many copies of the gene sequence of interest are contained, there is a rapid increase in amplification and the Cq value is small. In addition, the inverse number of Cq value is proportional to the initial amount of the gene sequence of interest."}, "L-929 cells [3]": {"system": "L-929 cells", "assay": "GFP-expressing plasmid introduction by plasma irradiation after inhibitor treatment, microscope observation", "type": "cell-based, mouse", "conditions": "1 μM or 100 μM nocodazole, 30 min before plasma irradiation; compared to the case without nocodazole treatment (FIGS. 2 to 4)", "protocol": "as §1\nIn Example 1, the plasma irradiation conditions were at a frequency of 20 kHz, a voltage of 15 kVpp, and an inter-electrode distance of 1 mm and for an irradiation time of 1 msec or 5 msec."}, "MDCK cells": {"system": "MDCK cells", "assay": "GFP plasmid introduction by plasma with nocodazole treatment after plasma irradiation, microscope observation", "type": "cell-based, canine", "conditions": "1.0 μM or 0.1 μM nocodazole for 30 min after plasma irradiation; vs without nocodazole treatment (FIG. 13)", "protocol": "(§2) By using cells (canine renal epithelial cell MDCK cells or human osteosarcoma cell MG63 cells) different from those in Example 1, gene transfer efficiency was examined when nocodazole treatment was performed after plasma irradiation. Specifically, the following protocol was used to conduct an experiment.\n(§3) Canine renal epithelial cell MDCK cells or human osteosarcoma cell MG63 cells were each seeded on a 96-well plate and cultured for 24 h in CO2 incubator. The culture medium was removed by aspiration, and 6.0 μg/6.0 μL of pAcGFP1-N1 plasmid (selected molecule) solution was added dropwise to each well. The 96-well plate was set in plasma irradiation equipment and was irradiated with plasma. Then, 100 μL of nocodazole (inhibitor)-free culture medium, 1 μM nocodazole-containing culture medium, or 0.1 μM nocodazole-containing culture medium was added to each well. The cells were cultured for 30 min in CO2 incubator. After that, the culture medium was removed by aspiration and 100 μL of culture medium was added immediately. The plate was returned to CO2 incubator, and the cells were cultured for 24 h. The cells after the culturing were observed under a microscope. The plasma irradiation conditions were the same as in Example 1."}, "MG63 cells [4]": {"system": "MG63 cells", "assay": "GFP plasmid introduction by plasma with nocodazole treatment before irradiation, microscope observation", "type": "cell-based, human", "conditions": "1.0 μM or 0.1 μM nocodazole before plasma irradiation; vs without nocodazole treatment (FIG. 12)", "protocol": "as §1\nAn experiment was conducted in the same manner as in Experiment 1, except that cells (human osteosarcoma cells, MG63 cells) different from those in Example 1 were used. The concentration of nocodazole was 1 μM or 0.1 μM."}, "MG63 cells [5]": {"system": "MG63 cells", "assay": "GFP plasmid introduction by plasma with nocodazole treatment after plasma irradiation, microscope observation", "type": "cell-based, human", "conditions": "1.0 μM or 0.1 μM nocodazole for 30 min after plasma irradiation; vs without nocodazole treatment (FIG. 14)", "protocol": "as §2, §3"}},
  "data": [
    {"smiles": "O=c1cc(N2CCOCC2)oc2c(-c3ccccc3)cccc12", "note": "[LY-294002, 2-(4-morpholinyl)-8-phenyl-4H-1-benzopyran-4-one]", "values": [
      {"measurement": "gene introduction rate", "setting": "L-929 cells [1]; plasma irradiation 1 msec", "value": "significantly increased"}
    ]},
    {"smiles": "CCN(CC)CCCC(C)Nc1ccnc2cc(Cl)ccc12", "note": "(stereo not drawn) [chloroquine]", "values": [
      {"measurement": "gene transfer efficiency", "setting": "L-929 cells [1]; chloroquine 5 μM or 15 μM, plasma irradiation time 1 msec to 10 msec, vs cells without chloroquine treatment (std) (FIG. 7(B))", "value": "increased"},
      {"measurement": "gene introduction rate", "setting": "L-929 cells [1]; plasma irradiation 1 msec", "value": "significantly increased"}
    ]},
    {"smiles": "COC(=O)Nc1nc2ccc(C(=O)c3cccs3)cc2[nH]1", "note": "[nocodazole]", "values": [
      {"measurement": "amount of exogenous gene DNA remaining in cells relative to cells without nocodazole treatment", "setting": "L-929 cells [2]", "value": "about 1.44 times"},
      {"measurement": "number of GFP-expressing cells", "setting": "L-929 cells [3]", "value": "increased"},
      {"measurement": "number of GFP-expressing cells", "setting": "MDCK cells", "value": "increase"},
      {"measurement": "gene transfer efficiency", "setting": "L-929 cells [1]; 1 μM nocodazole, treatment time 1 min to 120 min, plasma irradiation time 1 msec, vs without nocodazole (FIG. 6(B))", "value": "marked increase"},
      {"measurement": "gene transfer efficiency", "setting": "L-929 cells [1]; 1 μM nocodazole, treatment time 1 min to 120 min, plasma irradiation time 5 msec, vs cells without nocodazole (FIG. 5(B))", "value": "markedly increased"},
      {"measurement": "gene introduction rate", "setting": "L-929 cells [1]; plasma irradiation 1 msec", "value": "significantly increased"},
      {"measurement": "number of GFP-expressing cells", "setting": "MG63 cells [4]", "value": "increased"},
      {"measurement": "number of GFP-expressing cells", "setting": "MG63 cells [5]", "value": "increase"}
    ]},
    {"smiles": "COC[C@H]1OC(=O)c2coc3c2[C@@]1(C)C1=C(C3=O)[C@@H]2CCC(=O)[C@@]2(C)C[C@H]1OC(C)=O", "note": "[wortmannin]", "values": [
      {"measurement": "inhibitor concentration at which the gene transfer efficiency was further markedly increased", "setting": "L-929 cells [1]; plasma irradiation 1 msec, 30 min inhibitor treatment (FIGS. 8 to 11)", "value": "≤ 0.01", "unit": "µM"}
    ]}
  ]
}
